Experiment [1] concerns U-87MG cells. Briefly: Apoptosis by FITC-Annexin V/PI staining and flow cytometry, U-87MG. Format: cell-based, human. The following applies: 3 h at 37°C, Fig 6G-H. How it is done: (§1) Sections were also hematoxylin-stained and visualized by microscopy. B. Tissue lysates obtained from controls and several TF-D-LP4-TTs were immunoblotted for Nestin, Sox2, NGFR, CD133, and Klf4. C. Quantitative analysis of immunoblots is shown (n=2-4). D. Immunoblot analysis of, Klf4, Sox2, Nestin and Musashi expression in U-87MG and G7 cell lines, using specific antibodies. E. Quantitative analysis of immunoblots. […] G. G7 (·) and U-87MG cells (○) (2×10^5) were incubated for 3 h with the DMSO (0.15%) or with the indicated concentration of Retro-Tf-D-LP4 peptide in serum-free growth medium at 37°C and then subjected to FITC-Annexin V/PI staining and flow cytometry analysis. H. Representative FACS analysis of DMSO- (left) and 5 μM of Retro-Tf-D-LP4- (right) treated G7 or U-87MG cells.
Cells (6×10^5 /ml) were incubated in 500 μl serum-free medium with the peptide of interest for 6 h at 37°C in the presence of 5% CO2. The cells were then trypsinized, centrifuged (1500xg, 5 min), washed with PBS and analyzed for cell death using propidium iodide (PI) staining and flow cytometer (Beckton-Dickinson, San Jose, CA) and BD CellQuest Pro software. Apoptotic cell death was also analyzed by PI and annexin V-FITC staining, and by acridine orange and ethidium bromide staining and light microscopy (Olympus LX2-KSP).
Background: A flow cytometer gives signals particle by particle.

For experiment [2], the system named is U-87MG cells. In words: Cell death by propidium iodide (PI) staining and flow cytometry, U-87MG. Format: cell-based, human. The following applies: 6 h at 37°C, serum-free medium, means ± SD (n=3), Fig 1H, read-out: IC50 for inducing cell death. The source says: Figure 1 VDAC1-based peptides induce dramatic cell death of several brain tumor-derived cell lines but to lesser extent in primary brain cells A. IHC staining of VDAC1 of human normal brain (n=13) or glioblastoma (n=41) in tissue array slides (Biomax), as described in Materials and methods available online in Supplemental information. Percentages of sections stained at the intensity indicated are shown. […] The VDAC1-derived sequences Δ(1-14)N-terminus and LP4 are in green and pink, respectively. The cell-penetrating peptides Antp and Tf are in orange and blue, respectively. The loop shape of LP4 stabilized by a tryptophan zipper is in purple. The amino acids of Δ(1-14)N-terminus, LP4 and Antp are in the D configuration. […] Cells were harvested, washed twice with PBS and cell death was analyzed by propidium iodide (PI) staining and flow cytometry. […] Cells were harvested, washed twice with PBS and cell death was analyzed by PI staining and flow cytometry. […]
Sections were also hematoxylin-stained and visualized by microscopy. […] Quantitative analysis of immunoblots is shown (n=2-4). […] E. Quantitative analysis of immunoblots. […]
[…] The cells were then trypsinized, centrifuged (1500xg, 5 min), washed with PBS and analyzed for cell death using propidium iodide (PI) staining and flow cytometer (Beckton-Dickinson, San Jose, CA) and BD CellQuest Pro software. […]

The next experiment deals with GSC markers. In words: Expression of GSC markers in treated tumors (IHC, immunoblot). It counts as in vivo, human U-87MG in nude mice. The following applies: treated tumors vs PBS/DMSO. The procedure: as §1
Formalin-fixed, paraffin-embedded sections of control and peptide-TTs were hematoxylin-eosin stained, probed with appropriate antibodies via IHC staining or immunoblotting of cells and tissue extracts.
PLGA encapsulation of the VDAC1-based minutes using an UltraMicroPump III (World Precision peptide Retro-Tf-D-LP4 Instruments, Sarasota, FL). After infusion, the needle was left in place for 1 minute before slow withdrawal. The burr
Retro-Tf-D-LP4-loaded PLGA complexes were hole was sealed using sterile bone wax, and the wound prepared by the solvent displacement method with some was closed with 5.0 nylon surgical suture. All surgical modifications, as previously reported [2 3]. Twenty procedures were performed under sterile conditions.
100% DMSO and then diluted 20-fold with sterile DDW into three groups (6 animals/group) and treated every to reach a concentration of 25 mg/ml in a final DMSO third day with DMSO (1.44%), Retro-Tf-D-LP4 (10 concentration of 5%. PLGA (50 mg) was dissolved in mg/kg) or Retro-Tf-D-LP4 (10 mg/kg) encapsulated by acetone (1 ml). Then, 105 µl of peptide were added to the PLGA. Mice were subjected to MRI (at days 20 and 29), PLGA-acetone solution. The resulting peptide-PLGA- sacrificed, and brains were excised and processed for acetone mixture was added drop-wise (0.5 ml/min) into IHC. Tumor volume was analyzed using VivoQuant 2.10 10 ml of aqueous solution containing 1% PVA (w/v). The software. These experimental protocols were approved by mixtures were stirred continuously at room temperature the Institutional Animal Care and Use Committee of Ben-until complete evaporation of the organic solvent. The Gurion University. nanoparticles were centrifuged at 15,000g (4 °C for 20 min) and the pellet was re-suspended in sterile DDW and Gel electrophoresis and immunoblotting washed two times. The resulting pellet was mixed with HBSS solution. Cells or tumor tissue were lysed using lysis buffer (50 mM Tris-HCl, pH 7.5, 150 mM NaCl, 1
Xenograft and intracranial-orthotopic mouse mM EDTA, 1.5 mM MgCl2, 10% glycerol, 1% Triton models X-100, supplemented with a protease inhibitor cocktail
(Calbiochem, UK). Cell lysates were then centrifuged at U-87MG glioblastoma cells (3 x106) were inoculated 600xg (10 min at 4°C) and samples (10-40 μg of protein) s.c. into the hind leg ﬂanks of athymic eight-week old were subjected to SDS-PAGE and immunoblotting male nude mice (Envigo). Thirteen days post-inoculation, using various primary antibodies (sources and dilutions tumor volume was measured and calculated (100-130 as detailed in supplementary Table 2), followed by mm3) and mice were randomized into three groups (5 the appropriate HRP-conjugated secondary antibodies mice/group). Each treatment substance was injected into (i.e., anti-mouse, anti-rabbit or anti-goat). Blots the established s,c. tumors using PBS containing 0.26% were developed using enhanced chemiluminescence DMSO or peptide in PBS, 0.26% DMSO/20 μM). The (Biological Industries). Band intensities were analyzed xenografts were injected 20 µl per tumor (2 points) every by densitometry using Multi Gauge software (Fujifilm) […]
two days. […]
A general note: Immunoblotting shows a protein as a band on a membrane.

From article PMC5458211, “Mitochondrial VDAC1-based peptides: Attacking oncogenic properties in glioblastoma” (Oncotarget, 2017) come the findings set out here.

Each structure is given as a SMILES string. Non-standard residues stand in square brackets, D forms with d. Residues, ends and D or L forms follow the SMILES beside them.

Regarding `CC[C@H](C)[C@H](NC(=O)[C@H](Cc1ccc(O)cc1)NC(=O)[C@@H]1CCCN1C(=O)[C@H](CCCNC(=N)N)NC(=O)[C@H](Cc1c[nH]cn1)NC(=O)[C@H](CO)NC(=O)[C@H](Cc1c[nH]c2ccccc12)NC(=O)[C@@H](NC(=O)[C@H](Cc1c[nH]c2ccccc12)NC(=O)[C@H](CCC(=O)O)NC(=O)[C@@H](CCCCN)NC(=O)[C@@H](CCCCN)NC(=O)[C@@H](CC(C)C)NC(=O)[C@@H](CCC(=O)O)NC(=O)[C@H](NC(=O)[C@@H](C)NC(=O)[C@H](NC(=O)[C@@H](CC(N)=O)NC(=O)[C@@H](CC(C)C)NC(=O)[C@@H](C)NC(=O)[C@@H](Cc1c[nH]c2ccccc12)NC(=O)[C@H](NC(=O)[C@@H](C)NC(=O)CNC(=O)[C@@H](CC(N)=O)NC(=O)[C@@H](CO)NC(=O)[C@@H](CC(N)=O)NC(=O)[C@H](CCCCN)NC(=O)[C@H](Cc1c[nH]c2ccccc12)NC(=O)[C@@H](NC(=O)[C@H](Cc1c[nH]c2ccccc12)NC(=O)[C@@H](N)CCCCN)[C@@H](C)O)[C@H](C)O)C(C)C)[C@H](C)O)[C@@H](C)O)C(=O)N[C@@H](C)C(=O)N[C@@H](Cc1c[nH]cn1)C(=O)O` [Retro-Tf-D-LP4], the “apoptosis of U-87MG cells” value with U-87MG cells [1] was “induces apoptosis”.
What is called IC50 is the concentration that inhibits the measured activity by half. For `CC[C@@H](C)[C@@H](NC(=O)[C@@H](CCCCN)NC(=O)[C@H](NC(=O)[C@@H](CCC(N)=O)NC(=O)[C@@H](CCCNC(=N)N)NC(=O)[C@@H](CC(C)C)NC(=O)CNC(=O)[C@@H](Cc1ccccc1)NC(=O)CNC(=O)[C@@H](Cc1ccc(O)cc1)NC(=O)CNC(=O)[C@@H](CCCCN)NC(=O)[C@H](NC(=O)[C@@H](Cc1ccccc1)NC(=O)[C@H](NC(=O)[C@@H](CC(=O)O)NC(=O)[C@H](N)CCCNC(=N)N)C(C)C)[C@H](C)O)[C@H](C)CC)C(=O)N[C@H](Cc1c[nH]c2ccccc12)C(=O)N[C@H](Cc1ccccc1)C(=O)N[C@H](CCC(N)=O)C(=O)N[C@H](CC(N)=O)C(=O)N[C@H](CCCNC(=N)N)C(=O)N[C@H](CCCNC(=N)N)C(=O)N[C@H](CCSC)C(=O)N[C@H](CCCCN)C(=O)N[C@H](Cc1c[nH]c2ccccc12)C(=O)N[C@H](CCCCN)C(=O)N[C@H](CCCCN)C(=O)O` [D-ΔN-Ter-Antp] (H-[dR][dD][dV][dF][dT][dK]G[dY]G[dF]G[dL][dR][dQ][dI][dK][dI][dW][dF][dQ][dN][dR][dR][dM][dK][dW][dK][dK]-OH; N-terminus and C-terminus assumed), the IC50 with U-87MG cells [2] was 3.2 ± 0.6 µM.
For the compound `CC[C@H](C)[C@H](NC(=O)[C@H](C)NC(=O)[C@@H](N)Cc1c[nH]cn1)C(=O)N[C@@H](Cc1ccc(O)cc1)C(=O)N1CCC[C@H]1C(=O)N[C@@H](CCCNC(=N)N)C(=O)N[C@@H](Cc1c[nH]cn1)C(=O)N[C@@H](CO)C(=O)N[C@@H](Cc1c[nH]c2ccccc12)C(=O)N[C@H](C(=O)N[C@@H](Cc1c[nH]c2ccccc12)C(=O)N[C@@H](CCC(=O)O)C(=O)N[C@H](CCCCN)C(=O)N[C@H](CCCCN)C(=O)N[C@H](CC(C)C)C(=O)N[C@H](CCC(=O)O)C(=O)N[C@@H](C(=O)N[C@H](C)C(=O)N[C@@H](C(=O)N[C@H](CC(N)=O)C(=O)N[C@H](CC(C)C)C(=O)N[C@H](C)C(=O)N[C@H](Cc1c[nH]c2ccccc12)C(=O)N[C@@H](C(=O)N[C@H](C)C(=O)NCC(=O)N[C@H](CC(N)=O)C(=O)N[C@H](CO)C(=O)N[C@H](CC(N)=O)C(=O)N[C@@H](CCCCN)C(=O)N[C@@H](Cc1c[nH]c2ccccc12)C(=O)N[C@H](C(=O)N[C@@H](Cc1c[nH]c2ccccc12)C(=O)N[C@@H](CCCCN)C(=O)O)[C@@H](C)O)[C@H](C)O)C(C)C)[C@H](C)O)[C@@H](C)O` [Tf-D-LP4], in the experiment with GSC markers, the CD133 expression result was “markedly lower”, the Klf4 expression result is recorded as “markedly lower”, the NGFR expression result was “markedly lower” and the Nestin expression result was “markedly lower”. In the experiment with GSC markers, the S100B expression result is reported as “markedly lower” and the Sox2 expression entry is “markedly lower”.
